“And” between values parts separate entries of the source, which are not always exact repeats. Identical values can stand only once. Toxic doses and inconclusive results are not listed. The calls were made as follows: active = survival T/C of 150% or more; inactive = T/C below 125% in these data.
Tested on: P388 leukemia ip, CD2F1 mice, survival T/C
Test: NCI In Vivo Anticancer Drug Screen. Data for tumor model P388 Leukemia (intraperitoneal) in CD2F1 (CDF1) mice
Details: endpoint: median survival time, higher = longer survival
In short: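 Mice carrying the transplanted tumor received test compound or vehicle. Survival was recorded in each group, and the value is the treated-group measurement divided by that of the vehicle-treated control group.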

[1] = dose: 50.0 mg/kg/injection, schedule: Q01DX005 (ip), vehicle: saline with Tween-80
[2] = dose: 100.0 mg/kg/injection, schedule: Q01DX005 (ip), vehicle: saline with Tween-80
[3] = dose: 200.0 mg/kg/injection, schedule: Q01DX005 (ip), vehicle: saline with Tween-80

Measured: T/C

COC(=O)/C=C/CNC(C)C
inactive: dose: 25.0 mg/kg/injection, schedule: Q01DX009 (ip), vehicle: water 101 % of control | dose: 50.0 mg/kg/injection, schedule: Q01DX009 (ip), vehicle: water 99 % of control | dose: 100.0 mg/kg/injection, schedule: Q01DX009 (ip), vehicle: water 108 % of control | dose: 200.0 mg/kg/injection, schedule: Q01DX009 (ip), vehicle: water 115 % of control | dose: 400.0 mg/kg/injection, schedule: Q01DX009 (ip), vehicle: water 97 % of control

CC(O)C(=O)NCCO (stereo not given)
inactive: dose: 50.0 mg/kg/injection, schedule: Q01DX005 (ip), vehicle: saline 99 % of control | dose: 100.0 mg/kg/injection, schedule: Q01DX005 (ip), vehicle: saline 93 % of control | dose: 200.0 mg/kg/injection, schedule: Q01DX005 (ip), vehicle: saline 100 % of control

COc1ccc(C(=O)c2ccc(OCCBr)cc2)c(O)c1
inactive: [1] 92 % of control | [2] 88 % of control | [3] 88 % of control

CC(C)=CCC/C(C)=C\CCl
inactive: dose: 25.0 mg/kg/injection, schedule: Q01DX009 (ip), vehicle: saline with Tween-80 107 % of control | dose: 50.0 mg/kg/injection, schedule: Q01DX009 (ip), vehicle: saline with Tween-80 98 % of control | dose: 100.0 mg/kg/injection, schedule: Q01DX009 (ip), vehicle: saline with Tween-80 87 % of control | dose: 200.0 mg/kg/injection, schedule: Q01DX009 (ip), vehicle: saline with Tween-80 90 % of control

COc1cccc(OC)c1C(=O)Nc1cccc(NC(=O)c2c(OC)cccc2OC)n1
inactive: [1] 95 % of control | [2] 93 % of control | [3] 93 % of control

O=C1CCSC(=S)N1c1ccc(F)c(F)c1
inactive: dose: 50.0 mg/kg/injection, schedule: Q01DX009 (ip), vehicle: suspension in saline 107 % of control | dose: 100.0 mg/kg/injection, schedule: Q01DX009 (ip), vehicle: suspension in saline 92 % of control | dose: 200.0 mg/kg/injection, schedule: Q01DX009 (ip), vehicle: suspension in saline 92 % of control

O=c1ccc(=O)[nH][nH]1
inactive: dose: 25.0 mg/kg/injection, schedule: Q01DX009 (ip), vehicle: saline 102 % of control | dose: 50.0 mg/kg/injection, schedule: Q01DX009 (ip), vehicle: saline 105 % of control and 88 % of control | dose: 100.0 mg/kg/injection, schedule: Q01DX009 (ip), vehicle: saline 99 % of control and 102 % of control | dose: 200.0 mg/kg/injection, schedule: Q01DX009 (ip), vehicle: saline 99 % of control and 100 % of control | dose: 400.0 mg/kg/injection, schedule: Q01DX009 (ip), vehicle: saline 99 % of control and 110 % of control

CN1CSC(=S)NCCNC(=S)SC1
inactive: dose: 50.0 mg/kg/injection, schedule: Q01DX005 (ip), vehicle: Klucel (hydroxypropylcellulose) (HPC) 87 % of control | dose: 100.0 mg/kg/injection, schedule: Q01DX005 (ip), vehicle: Klucel (hydroxypropylcellulose) (HPC) 94 % of control | dose: 200.0 mg/kg/injection, schedule: Q01DX005 (ip), vehicle: Klucel (hydroxypropylcellulose) (HPC) 87 % of control

CC(=O)C(C=O)C(C)=O.CC(=O)CC(C)=O.CC(=O)CC(C)=O.[Ru]
inactive: dose: 15.0 mg/kg/injection, schedule: Q01DX005 (ip), vehicle: saline with Tween-80 100 % of control | dose: 30.0 mg/kg/injection, schedule: Q01DX005 (ip), vehicle: saline with Tween-80 102 % of control | dose: 60.0 mg/kg/injection, schedule: Q01DX005 (ip), vehicle: saline with Tween-80 104 % of control and 109 % of control

NS(=O)(=O)c1ccc(N=Nc2nc3[nH]c(=O)[nH]c(=O)c3[nH]2)cc1
inactive: dose: 6.25 mg/kg/injection, schedule: Q01DX005 (ip), vehicle: Klucel (hydroxypropylcellulose) (HPC) 106 % of control | dose: 12.5 mg/kg/injection, schedule: Q01DX005 (ip), vehicle: Klucel (hydroxypropylcellulose) (HPC) 102 % of control | dose: 25.0 mg/kg/injection, schedule: Q01DX005 (ip), vehicle: Klucel (hydroxypropylcellulose) (HPC) 107 % of control
